Data taken from article PMC8868518, “Exploring Titanium(IV) Complexes as Potential Antimicrobial Compounds” (Antibiotics, 2022).
Where two headings read alike, the source gives them in different places.

Legend:
[1] = system: HEK293 ATCC CRL-1573 human embryonic kidney cells; assay: CO-ADD cytotoxicity assay (resazurin); format: cell-based; conditions: all concentrations examined (0.25-32 μg/mL), 20 h; CC50 could not be measured
Method: The compounds were used as received by the CO-ADD. For the screenings, most compounds were dissolved to a stock concentration of 10 mg/mL in DMSO. K2[Ti(Citrate)3], Na3Citrate, and K2[TiO(Oxalate)2] were dissolved in warm water. [Cu(Deferasirox)(H2O)]2 was dissolved in pyridine after its solubility was determined to be excellent in pyridine due to coordination of the solvent to the metal producing [Cu(Deferasirox)(pyridine)]2 in situ. […] Each sample concentration was prepared in 384-well plates, non-binding surface plate (NBS; Corning 3640) for each bacterial/fungal strain, tissue-culture treated (TC-treated; Corning 3712/3764), black for mammalian cell types and polypropylene 384-well (PP; […] All sample preparation was conducted using liquid handling robots. HEK293 ATCC CRL-1573 human embryonic kidney cells were counted manually in a Neubauer hemocytometer and added to compound-containing plates (384-well plates, tissue culture-treated (TC); […] Life Technologies 11995-073) with 10% FBS (GE SH30084.03).

[2] = system: K. pneumoniae (ATCC 700603); assay: CO-ADD antibacterial assay, growth inhibition (OD600); format: cell-based, Klebsiella pneumoniae; conditions: up to 32 μg/mL; for MIC K. pneumoniae: predicted or measured MIC, ≥75% growth inhibition
Method: (§1) Dry compounds ranging from 1–2 mg were weighed into properly labeled Eppendorf tubes and sealed with parafilm. The compounds were used as received by the CO-ADD. For the screenings, most compounds were dissolved to a stock concentration of 10 mg/mL in DMSO. K2[Ti(Citrate)3], Na3Citrate, and K2[TiO(Oxalate)2] were dissolved in warm water. […] Samples were diluted in water to a final testing concentration of 32 µg/mL while keeping the final co-solvent concentration to a maximum of 0.5%. Where applicable, compounds were serially diluted 1:2 fold eight times. Each sample concentration was prepared in 384-well plates, non-binding surface plate (NBS; Corning 3640) for each bacterial/fungal strain, tissue-culture treated (TC-treated; Corning 3712/3764), black for mammalian cell types and polypropylene 384-well (PP; Corning 3657) for hemolysis assays, all in duplicate (n = 2), and keeping the final DMSO concentration to a maximum of 0.5%. All sample preparation was conducted using liquid handling robots.
(§2) For the bacterial assays, four Gram-negative bacteria (E. coli (ATCC 25922, Manassas, VA, USA); K. pneumoniae (ATCC 700603), A. baumannii; (ATCC 19606), and P. aeruginosa (ATCC 27853) and the Gram-positive bacteria (S. aureus MRSA (ATCC 43300) were used. Each strain was cultured in cation-adjusted Mueller Hinton broth (CAMHB; Bacto Laboratories 212322, Mount Pritchard, Australia) at 37 °C overnight. A sample of each culture was then diluted 40-fold in fresh CAMHB and incubated at 37 °C for 1.5–3 h. The resultant mid-log phase cultures were diluted with CAMHB (CFU/mL measured by OD600), then added to each well of the compound-containing plates (384-well non-binding surface (NBS) plates; Corning CLS3640, Millipore Sigma, Burlington, MA, USA), giving a cell density of 5 × 10^5 CFU/mL and a total volume of 50 µL. Plates were covered and incubated at 37 °C for 18 h without shaking. Inhibition of bacterial growth was determined by measuring absorbance at 600 nm (OD600) with a Tecan M1000 Pro monochromator plate reader, using media-only as negative control and bacteria without inhibitors as a positive control. […] Colistin sulfate (Sigma C4461) and vancomycin HCl (Sigma 861987) were used as internal controls on each plate for Gram-negative and Gram-positive bacteria, respectively.

[3] = system: P. aeruginosa (ATCC 27853); assay: as above; format: cell-based, Pseudomonas aeruginosa; conditions: up to 32 μg/mL; for MIC P. aeruginosa: predicted or measured MIC, ≥75% growth inhibition
Method: as §1, §2

[4] = system: C. neoformans (ATCC 208821); assay: CO-ADD antifungal assay, growth inhibition (resazurin, OD600-570); format: cell-based, Cryptococcus neoformans; conditions: up to 32 μg/mL; for MIC C. neoformans: predicted or measured MIC, ≥75% growth inhibition, 36 h
Method: (§3) The compounds were used as received by the CO-ADD. For the screenings, most compounds were dissolved to a stock concentration of 10 mg/mL in DMSO. K2[Ti(Citrate)3], Na3Citrate, and K2[TiO(Oxalate)2] were dissolved in warm water. [Cu(Deferasirox)(H2O)]2 was dissolved in pyridine after its solubility was determined to be excellent in pyridine due to coordination of the solvent to the metal producing [Cu(Deferasirox)(pyridine)]2 in situ. […] Each sample concentration was prepared in 384-well plates, non-binding surface plate (NBS; Corning 3640) for each bacterial/fungal strain, tissue-culture treated (TC-treated; Corning 3712/3764), black for mammalian cell types and polypropylene 384-well (PP; […] All sample preparation was conducted using liquid handling robots. For the fungal assays, the fungi (C. albicans (ATCC 90028) and C. neoformans) (ATCC 208821) were used. Both fungi (yeast) strains were cultured for 3 days on Yeast Extract-Peptone Dextrose (YPD; Becton Dickinson 242720, Thermo Fisher Scientific, Waltham, MA, USA) agar at 30 °C. A yeast suspension of 1 × 10^6 to 5 × 10^6 CFU/mL (as determined by OD530) was prepared from five colonies from the agar plates, subsequently diluted with Yeast Nitrogen Base media (YNB; Becton Dickinson 233520, Thermo Fisher Scientific, Waltham, MA, USA), and added to each well of the compound-containing plates (384-well plates, NBS; Corning CLS3640) giving a final cell density of 2.5 × 10^3 CFU/mL and a total volume of 50 μL. Plates were covered and incubated at 35 °C for 36 h without shaking. […] Sigma R7017) and incubation at 35 °C for 2 h, using media-only as a negative control and fungi without inhibitors as a positive control. […] Fluconazole (Sigma F8929) was used as an internal control on each plate for both strains.

[5] = system: E. coli (ATCC 25922); assay: CO-ADD antibacterial assay, growth inhibition (OD600); format: cell-based, Escherichia coli; conditions: up to 32 μg/mL; for MIC E. coli: predicted or measured MIC, ≥75% growth inhibition
Method: as §1, §2

[6] = cited from earlier work
[7] = system: C. albicans (ATCC 90028); assay: CO-ADD antifungal assay, growth inhibition (OD630); format: cell-based, Candida albicans; conditions: up to 32 μg/mL; for MIC C. albicans: predicted or measured MIC, ≥75% growth inhibition, 36 h
Method: as §3

[8] = system: MRC-5 cells; conditions: cited from earlier work
[9] = system: S. aureus MRSA (ATCC 43300); assay: CO-ADD antibacterial assay, growth inhibition (OD600); format: cell-based, Staphylococcus aureus; conditions: for MIC S. aureus (MRSA): predicted or measured MIC, lowest concentration with ≥75% growth inhibition, 0.25-32 μg/mL, 18 h; for Dmax S. aureus (MRSA), maximum % inhibition: up to 32 μg/mL
Method: as §1, §2

[10] = system: A. baumannii (ATCC 19606); assay: as above; format: cell-based, Acinetobacter baumannii; conditions: up to 32 μg/mL; for MIC A. baumannii: predicted or measured MIC, ≥75% growth inhibition
Method: as §1, §2

[11] = system: MRC-5 cells; assay: MRC-5 cell viability, dose-response treatment, MTT assay; format: cell-based, human; conditions: MRC-5 cells, MTT, 72 h, pH 7.4, n = 6, this work
Method: A thawed stock of MRC-5 cells was washed with 1X PBS and resuspended in phenol red DMEM media (supplemented with 10% FBS and 1% of penicillin-streptomycin) and then seeded in a 100 mm × 20 mm (complete, O.D. x H) petri dish and grown in a 5% (v/v) CO2 humidified atmosphere at 37 °C. At least three passages were performed to ensure the integrity of the cells. After this point, cells were collected, thoroughly washed with 1X PBS, and then resuspended in phenol red-free DMEM (supplemented with 10% FBS, 1% Streptomycin/Penicillin, and 2.4 mM L-glutamine) at a 2.0 × 10^5 cells/mL concentration. Approximately 100 µL of the cell solution was seeded into wells of several 96-well plates to begin the MTT assay, which was performed in the 5% (v/v) CO2 humidified atmosphere at 37 °C. At least one lane of wells in each plate was supplied media without cells as a control. […] Most of the compounds were dissolved in 1X PBS buffer at pH 7.4. […] Titanocene dichloride was prepared as a fresh stock solution in DMSO and then diluted in 0.1 M NaCl (aq) instead of 1X PBS (to minimize hydrolysis induced precipitation) to the desired concentration while maintaining a constant 1% (v/v) DMSO background (0.5% DMSO after mixing with the well media). A control of cells treated with media containing 1% (v/v) DMSO was included in the study. The titanocene solutions were used within an hour of preparation in the final cell solution. […] At 3 h before a total of 72 h of incubation with the compounds, the cells were treated with 25 µL of 9 mg/mL MTT prepared in 1X PBS and sterile-filtered. Upon completion of the three hours, 50 µL of 10% (w/v) SDS (prepared in 0.1 M Tris buffer at pH 11) was added to solubilize the purple formazan product crystals and left overnight in the incubator. Control wells in the plates consisted of: (1) Untreated cells + MTT as the measure of 100% viable cell growth in the media and (2) Media with no cells + MTT as the measure of zero cells in the media. Two sets of compounds could be tested per plate. The plates were read at the wavelength of 570 nm (absorbance of the formazan product at pH 10.0) and 800 nm (background control) using a Tecan plate reader. The absorbance of all wells was compared to the absorbance of the untreated cells with the MTT set as the 100% viable cell standard and the absorbance of the zero cell control set as the 0% viable cell standard. […] Nonlinear regression in Origin 8.5 was utilized to fit the growth curves using the pharmacology dose–response equation to determine the half-maximal inhibitory concentration (IC50) and the corresponding standard deviation. All samples were tested six times.

Molecule | MIC K. pneumoniae [2] | Dmax K. pneumoniae, maximum % inhibition [2] | MIC P. aeruginosa [3] | Dmax P. aeruginosa, maximum % inhibition [3] | MIC C. neoformans [4] | Dmax C. neoformans, maximum % inhibition [4] | MIC E. coli [5] | Dmax E. coli, maximum % inhibition [5] | solution stability (in words) ([6]; pH 4) | MIC C. albicans [7] | Dmax C. albicans, maximum % inhibition [7] | MIC S. aureus (MRSA) [9] | Dmax S. aureus (MRSA), maximum % inhibition [9] | MIC A. baumannii [10] | Dmax A. baumannii, maximum % inhibition [10] | further results
O=C1CN2CCN3CC(=O)[O][Ti]([O]1)([O]c1ccccc1C2)[O]c1ccccc1C3 [Compound 11, Ti(HBED)] | >32 µg/mL | 56.3% | >32 µg/mL | 72.48% | >32 µg/mL | −18.86% | >32 µg/mL | 48.02% | highly stable in solution | >32 µg/mL | 10.43% | >32 µg/mL | 61.46% | >32 µg/mL | 68.73% | antiproliferative effect against HEK293 (in words) [1]: inactive; IC50 ± SD [8]: 18.5 ± 1.9 µg/mL; IC50 ([8]; read-out: IC50 ± SD): 42 ± 4.4 µM
[Cl-].[Cl-].[Ti+4].c1cc[cH-]c1.c1cc[cH-]c1 [Compound 13, Bis(cyclopentadienyl)titanium(IV) dichloride, reference compound] | >32 µg/mL | 16.65% | >32 µg/mL | 16.01% | >32 µg/mL | 6.5% | >32 µg/mL | 23.76% | – | >32 µg/mL | 16.15% | >32 µg/mL | 51.55% | >32 µg/mL | 15.78% | IC50 ± SD (µg/mL) [11]: >>24.9 µg/mL; IC50 ([11]; read-out: IC50 ± SD): > 100 µM; solution stability (in words) ([6]; pH 7.4): extremely hydrolysis prone
Ti(BHPT)2 [Compound 9] | >32 µg/mL | 6.35% | >32 µg/mL | 10.27% | >32 µg/mL | −1.7% | >32 µg/mL | −0.56% | highly stable in solution | >32 µg/mL | 4.27% | >32 µg/mL | 7.82% | >32 µg/mL | 1.55% | IC50 ([8]; approximated relative IC50, compound inhibits proliferation at a maximum of 25%, read-out: IC50 (µM), approximated relative IC50): ~2.4 µM; IC50 (µg/mL), approximated relative IC50 ([8]; approximated relative IC50, compound inhibits proliferation at a maximum of 25%): ~1.5 µg/mL; activity against MRSA (in words) ([9]; CO-ADD screen, 32 μg/mL): inactive
